How the values were obtained:
[1] = test system: COX-2; assay: COX-2 protein expression in LPS-stimulated THP-1 macrophages (western blot); format: cell-based, human; conditions: 1 h pretreatment, then LPS 1 μg/mL 24 h
Description: COX-2 is the key enzyme regulating the production of prostaglandins, which are the central mediators of inflammation. On the other hand, iNOS enzyme represents an important molecular target closely involved in inflammatory responses. Thus, the effect of the AMTs 1–8 on LPS-induced COX-2 and iNOS protein expression was investigated by western blot analysis.
Figure 3 Effect of meroterpenoids 1–8 on LPS-induced COX-2 and iNOS protein expression in THP-1 macrophages. Cells were pretreated for 1 h with the compounds (1, 2, 3, 4, 7, and 8 at 8 μg/mL; 5 and 6 at 4 μg/mL) and then stimulated with LPS (1 μg/mL). Cytosolic lysates from 24 h-stimulated cells were separated on 10% SDS-PAGE. COX-2, iNOS, and β-actin were detected by western blot analysis. Data are expressed as means ± SE from three independent experiments. Statistical significance is indicated (+++ p < 0.001 and ++ p < 0.01, vs. Control, respectively; * p < 0.05, and ** p < 0.01 vs. Control + LPS).
Western blotting was used to measure the protein levels of COX-2 and iNOS [65]. THP-1 macrophages were plated at a density of 1 × 10^6 cells/mL in six-well plates, treated for 1 h with compounds 1–8 (8 μg/mL for compounds 1, 2, 3, 4, 7, and 8, and 4 μg/mL for compounds 5 and 6), and then stimulated with 1 μg/mL of LPS in medium at 37 °C. After 24 h, the cells were washed with ice-cold PBS, collected, suspended in the lysis buffer (250 mM NaCl, 50 mM Tris (pH 7.5), 0.5 mM EDTA, 5 mM EGTA, 8 mM MgCl2, 1 mM PMSF, 0.01 mg/mL pepstatin A, 0.01 mg/mL leupeptin, 0.01 mg/mL aprotinin, 1% Triton X-100) and centrifuged at 12,000× g at 4 °C for 3 min to yield cell lysates. Proteins concentration in cell lysates was determined by Bio-Rad Protein Assay, based on the method of Bradford (BioRad, Richmond CA, USA). Cytosolic proteins (50 μg) were separated with 10% SDS-polyacrylamide gel electrophoresis and transferred on PVDF membranes. The membranes were then blocked with 5% (w/v) non-fat dry milk in Tris-buffered saline containing 0.1% Tween-20 (pH 7.4) (TBST) buffer at room temperature for 1 h. The membranes were washed three times (10 min) in TBST buffer and incubated with specific primary antibodies anti-COX-2 (1:3000) or anti-iNOS (1:1000) diluted in 5% (w/v) non-fat dry milk in TBST buffer, at 4 °C overnight. Then, the membranes were incubated with peroxidase-conjugated […] goat anti-rabbit IgG (1: 1000) for 1 h at room temperature. To ascertain that blots were loaded with equal amounts of protein lysates, they were also incubated in the presence of the antibody against β-actin protein (1:10,000). After washing the membrane again with TBST buffer (10 min) three times, the antibody was visualized using an enhanced chemiluminescence light-detecting kit (Super-Signal West Pico Chemiluminescent Substrate, Pierce, IL, USA), according to the manufacturer’s instructions and exposed to an X-ray film (GE Healthcare Ltd., Amersham, UK). The protein band densities were quantified using a Scientific Imaging Systems (Biophotonics ImageJ Analysis Software, National Institute of Mental Health, Bethesda, MD, USA).

[2] = test system: IL-6; assay: IL-6 production in LPS-stimulated THP-1 macrophages (ELISA); format: cell-based; conditions: Homo sapiens, 1 h pretreatment, then LPS 1 μg/mL 24 h; for inhibition at 8 µg/mL: 8 μg/mL; for inhibition at 4 µg/mL: 4 μg/mL
Description: To determine the effects of the AMTs 1–8 on the production of TNF-α, IL-6, and IL-1β, THP-1 macrophaghes were pretreated with the compounds and then stimulated with LPS, as the triggering factor to stimulate the cytokines production. The levels of pro-inflammatory cytokines in the cell supernatants were determined using the enzyme-linked immunosorbent (ELISA) kits.
Figure 2 Meroterpenoids 1–8 inhibit LPS-induced expression of TNF-α, IL-6, and IL-1β in THP-1 macrophages (A, B, and C) respectively. Cells were pretreated for 1 h with the compounds (1, 2, 3, 4, 7, and 8 at 8 μg/mL; 5 and 6 at 4 μg/mL), followed by 24 h treatment with LPS. TNF-α (A), IL-6 (B) and IL-1β (C) contents in the culture medium were determined by ELISA. Dexametasone (DEX) was used as positive control. Data are expressed as means ± SE from three independent experiments. Statistical significance is indicated (+++p < 0.001 and +++< 0.01 vs. Control; respectively * p < 0.05, ** p < 0.01, *** p < 0.001 vs. Control + LPS).
THP-1 cells were plated at a density of 3 × 10^5 cells/mL in 24-well plates and incubated with PMA (0.2 μM) for 72 h in a humidified atmosphere of 5% CO2 at 37 °C. The macrophages were pre-treated for 1 h with AMTs 1–8 (8 μg/mL for compounds 1, 2, 3, 4, 7, and 8, and 4 μg/mL for 5 and 6) and then stimulated with lipopolysaccharide (LPS, 1 μg/mL) for another 24 h. Dexamethasone (Dex) was used as positive reference compound at 1 μM. The viability of cells was greater than 95% throughout the experiment. The levels of TNF-α, IL-6, and IL-1ß in supernatants were measured with enzyme-linked immune-sorbent assay (ELISA) kits (Diaclone GEN-PROBE, Besançon cedex, France) according to the manufacturer’s protocols. The absorbance was determined at 450 nm using a microplate reader. To calculate the concentration of cytokines, a standard curve was constructed using serial dilutions of cytokine standards provided with the kit.

Row | SMILES | effect on expression of COX-2 (in words) ([1]; 8 μg/mL) | inhibition at 8 µg/mL [2] [%] | decrease of COX-2 levels ([1]; 8 μg/mL) [%] | decrease of COX-2 levels ([1]; 4 μg/mL) [%] | inhibition at 4 µg/mL [2] [%]
1 | COc1c(C)cc(O)cc1C/C=C(\C)CC(=O)/C=C(/C)CCCC(C)(O)C(=O)/C=C/C(C)(C)O (stereo not shown) [Compound 1, usneoidone Z] | no significant effect | 71.2 | – | – | –
2 | COc1c(C)cc(O)cc1C/C=C(\C)CC(=O)/C=C(\C)CCCC(C)(O)C(=O)/C=C/C(C)(C)O (stereo not shown) [Compound 2, 11-hydroxy-1’-O-methylamentadione] | significantly down-regulated | 80.8 | – | – | –
3 | COc1c(C)cc(O)cc1C/C=C(\C)CC(=O)/C=C(\C)CCCC(C)=O [Compound 3, cystomexicone B] | – | 69.2 | 53.35 | – | –
4 | COc1c(C)cc(O)cc1C/C=C(\C)CC(=O)/C=C(/C)CCCC(C)=O [Compound 4, cystomexicone A] | significantly down-regulated | 43 | – | – | –
5 | COc1c(C)cc(O)cc1C/C=C(\C)CC(=O)/C=C(/C)CCCC(C)C(=O)/C=C/C(C)(C)O (stereo not drawn) [Compound 5, 6-cis-amentadione-1′-methyl ether] | – | – | – | 53.52 | 67.8
6 | COc1c(C)cc(O)cc1C/C=C(\C)CC(=O)/C=C(\C)CCCC(C)C(=O)/C=C/C(C)(C)O (stereo not shown) [Compound 6, amentadione-1′-methyl ether] | – | – | – | 64.23 | 50.9
7 | COc1c(C)cc(O)cc1/C=C/C(C)(O)CC(=O)/C=C(/C)CCCC(C)C(=O)/C=C/C(C)(C)O (stereo not shown) [Compound 7, cystodione A] | – | 49.6 | 58.05 | – | –
8 | COc1c(C)cc(O)cc1/C=C/C(C)(O)CC(=O)/C=C(\C)CCCC(C)C(=O)/C=C/C(C)(C)O (stereo not shown) [Compound 8, cystodione B] | no significant effect | 58.9 | – | – | –

Reference: PMC7230911, “Meroterpenoids from the Brown Alga Cystoseira usneoides as Potential Anti-Inflammatory and Lung Anticancer Agents” (Marine Drugs, 2020)
